In patent US20110144014A1, “CYTOKINE RECEPTOR MODULATORS AND USES THEREOF” (CENTRE HOSPITALIER UNIVERSITAIRE SAINTE-JUSTINE, priority 2005, published 2011):

What was measured:
IL-1R/IL-1RacP = assay: IL-1-induced PGE2 synthesis in endothelial cells; type: cell-based, porcine
Description: Efficiencies and inhibitory activities of the mutated peptides were determined by measuring the inhibition of IL-1-induced PGE2 synthesis. […] All peptides were tested at concentration 10^−6M.
The arginine of API-101.10 (SEQ ID NO: 10) was replaced by citrulline—to change from a guanidine to a urea group near the N-terminal. Other mutations (e.g. E to Q in API-101.102 and API-101.103) and a truncated peptide at the C-terminal (API-101.108) were also performed to improve the potency and the efficacy of the peptides. Measurement of PGE2 was performed with piglet brain microvessel endothelial cells and WI-38 human fibroblasts. Some of the mutations were advantageous and gave major increases in potency.
IL-1-induced PGE2 synthesis assay on endothelial cells was used as a screening assay for the peptidomimetics.

IL-1R = biological target: T1, IL-1R (Homo sapiens, UniProt P14778); assay: IL-1R antagonist activity, structure vs. activity text, assay not stated
T1 sequence (P14778 18-569): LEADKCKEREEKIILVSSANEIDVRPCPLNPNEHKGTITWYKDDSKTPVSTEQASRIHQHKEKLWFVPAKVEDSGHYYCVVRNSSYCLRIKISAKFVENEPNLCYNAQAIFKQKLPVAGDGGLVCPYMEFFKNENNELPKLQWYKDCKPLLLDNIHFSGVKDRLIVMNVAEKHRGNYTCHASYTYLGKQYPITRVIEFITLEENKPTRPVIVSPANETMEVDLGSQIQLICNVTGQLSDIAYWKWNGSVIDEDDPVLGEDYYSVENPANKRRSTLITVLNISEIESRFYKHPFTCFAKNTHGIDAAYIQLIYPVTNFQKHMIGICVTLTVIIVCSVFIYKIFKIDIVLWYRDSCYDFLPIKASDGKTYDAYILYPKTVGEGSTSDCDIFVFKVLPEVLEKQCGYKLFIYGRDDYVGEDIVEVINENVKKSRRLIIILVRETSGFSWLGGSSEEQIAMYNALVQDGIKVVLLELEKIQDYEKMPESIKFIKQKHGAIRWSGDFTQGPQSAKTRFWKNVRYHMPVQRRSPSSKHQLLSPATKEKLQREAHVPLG
T1 sequence (Q9NPH3 21-570 partner): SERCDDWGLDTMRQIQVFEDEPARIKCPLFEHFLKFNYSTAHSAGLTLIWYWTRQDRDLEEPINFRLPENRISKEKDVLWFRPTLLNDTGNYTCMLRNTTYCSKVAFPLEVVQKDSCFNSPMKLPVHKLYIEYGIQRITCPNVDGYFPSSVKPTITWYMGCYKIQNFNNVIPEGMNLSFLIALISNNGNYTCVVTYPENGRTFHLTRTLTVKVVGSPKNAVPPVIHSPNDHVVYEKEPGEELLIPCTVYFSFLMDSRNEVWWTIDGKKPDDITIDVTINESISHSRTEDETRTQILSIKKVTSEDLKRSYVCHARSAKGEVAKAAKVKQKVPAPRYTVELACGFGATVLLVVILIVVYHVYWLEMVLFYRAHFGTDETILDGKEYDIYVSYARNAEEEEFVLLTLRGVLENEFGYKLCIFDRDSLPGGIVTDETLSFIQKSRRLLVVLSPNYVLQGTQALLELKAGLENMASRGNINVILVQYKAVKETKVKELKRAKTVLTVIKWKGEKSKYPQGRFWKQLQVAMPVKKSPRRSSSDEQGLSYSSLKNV

IC50 (IL-1R): 0.01 nM
Compound: CC(C)C[C@@H](NC(=O)[C@@H](CCC(=O)O)NC(=O)[C@H]1CC[C@H]2CC[C@@H](NC(=O)[C@@H](Cc3ccc(O)cc3)NC(=O)[C@H](N)CCCNC(=N)N)C(=O)N21)C(=O)N[C@H](C)C(N)=O [API-101.110, RY(I^2aa)ELA]
efficacy relative to API-101.107 (IL-1R/IL-1RacP): twice the efficacy
potency relative to API-101.107 (IL-1R/IL-1RacP): 10 fold
